Measured values: ChEMBL document CHEMBL1201862, “PubChem BioAssay data set” (2004)
The source made the active and inactive calls.

Experiments:
[1] = intracellular Trypanosoma cruzi inhibitors in host cells – cell-based, plate reader, cherry-pick samples, set 3, dose response (AID 651818); format: functional;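 further: compounds incubated with infected cells for about four days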
[2] = loss of viability in HepG2 cells – cell-based, CellTiter-Glo, cherry-picked, cytotoxicity control for Shn3 inhibitor project, dose response (AID 624134); format: functional
[3] = reduction of Shn3 3'UTR-driven luciferase in osteoblasts – cell-based, Clone20 osteoblasts, firefly luciferase, cherry-picked, dose response (AID 624132); format: functional;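 further: firefly luciferase luminescence from reporter carrying the Shn3 3'UTR in osteoblasts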
[4] = non-specific 3'UTR reporter inhibition in Clone20-Shn3RL – cell-based, Renilla luciferase, cherry-picked, counter-screen for Shn3 inhibitor project, dose response (AID 624133); format: functional
[5] = system: INS1; assay: INS-1E survival protection against cytokine death – cell-based, luminescence, retest, dose response (AID 449756); format: functional; conditions: Rattus norvegicus;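 further: cell death triggered by IL-1 beta plus TNF-alpha plus IFN-gamma mixture; protective hits raise ATP signal compared with cytokine alone wells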
[6] = target: T1, Estrogen receptor (Homo sapiens, UniProt P03372);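 further: potency for inhibiting coactivator peptide recruitment to the receptor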
T1 sequence (P03372 whole entry): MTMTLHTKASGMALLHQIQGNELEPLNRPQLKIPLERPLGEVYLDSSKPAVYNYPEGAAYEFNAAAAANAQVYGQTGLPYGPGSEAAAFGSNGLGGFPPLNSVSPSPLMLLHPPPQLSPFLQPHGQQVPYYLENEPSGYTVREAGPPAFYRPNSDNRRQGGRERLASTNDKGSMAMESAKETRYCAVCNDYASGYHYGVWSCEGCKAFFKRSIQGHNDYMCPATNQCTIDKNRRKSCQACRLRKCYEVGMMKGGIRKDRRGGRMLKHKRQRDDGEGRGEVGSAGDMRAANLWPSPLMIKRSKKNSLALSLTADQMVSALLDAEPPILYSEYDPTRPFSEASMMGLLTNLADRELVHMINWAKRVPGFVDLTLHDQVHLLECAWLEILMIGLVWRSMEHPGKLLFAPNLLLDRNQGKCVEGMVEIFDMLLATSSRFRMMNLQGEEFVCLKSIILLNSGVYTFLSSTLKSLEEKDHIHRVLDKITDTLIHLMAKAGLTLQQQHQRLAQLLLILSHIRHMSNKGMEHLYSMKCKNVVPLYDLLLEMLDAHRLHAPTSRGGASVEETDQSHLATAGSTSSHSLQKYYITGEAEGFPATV

[7] = target: T2, Heat shock factor protein 1 (Mus musculus, UniProt P38532); assay: enhancement of HSF1-driven luciferase signal – cell-based, NIH3T3, luminescence, dose retest, confirmation (AID 435004); format: functional;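 further: stress induced by proteasome inhibitor MG132 added 30 min after compound; luciferase reporter driven by HSF1 response element in NIH3T3 cells; actives raise luminescence as potentiators of the MG132 stress response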
T2 sequence (P38532 whole entry): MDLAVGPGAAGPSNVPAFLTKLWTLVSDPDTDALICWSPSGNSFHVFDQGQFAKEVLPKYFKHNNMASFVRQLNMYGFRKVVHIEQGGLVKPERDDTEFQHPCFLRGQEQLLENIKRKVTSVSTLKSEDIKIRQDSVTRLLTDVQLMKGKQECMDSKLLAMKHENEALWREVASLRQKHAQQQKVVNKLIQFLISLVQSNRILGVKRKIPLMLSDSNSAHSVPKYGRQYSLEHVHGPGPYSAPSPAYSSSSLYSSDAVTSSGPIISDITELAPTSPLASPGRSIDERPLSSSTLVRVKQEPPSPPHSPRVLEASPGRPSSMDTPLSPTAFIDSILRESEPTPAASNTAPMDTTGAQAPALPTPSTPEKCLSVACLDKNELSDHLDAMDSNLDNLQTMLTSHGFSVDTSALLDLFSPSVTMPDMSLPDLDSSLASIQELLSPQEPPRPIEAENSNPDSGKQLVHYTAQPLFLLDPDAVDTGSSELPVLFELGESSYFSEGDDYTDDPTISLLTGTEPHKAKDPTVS

[8] = target: Heat shock protein HSP 90-alpha (Homo sapiens, UniProt P07900); format: functional, organism-based
[9] = target: T3, High affinity choline transporter 1 (Homo sapiens, UniProt Q9GZV3); assay: human choline transporter blockers, potency – cell-based, 5-point CRC, membrane potential dye, dose response (AID 504840); format: functional
T3 sequence (Q9GZV3 whole entry): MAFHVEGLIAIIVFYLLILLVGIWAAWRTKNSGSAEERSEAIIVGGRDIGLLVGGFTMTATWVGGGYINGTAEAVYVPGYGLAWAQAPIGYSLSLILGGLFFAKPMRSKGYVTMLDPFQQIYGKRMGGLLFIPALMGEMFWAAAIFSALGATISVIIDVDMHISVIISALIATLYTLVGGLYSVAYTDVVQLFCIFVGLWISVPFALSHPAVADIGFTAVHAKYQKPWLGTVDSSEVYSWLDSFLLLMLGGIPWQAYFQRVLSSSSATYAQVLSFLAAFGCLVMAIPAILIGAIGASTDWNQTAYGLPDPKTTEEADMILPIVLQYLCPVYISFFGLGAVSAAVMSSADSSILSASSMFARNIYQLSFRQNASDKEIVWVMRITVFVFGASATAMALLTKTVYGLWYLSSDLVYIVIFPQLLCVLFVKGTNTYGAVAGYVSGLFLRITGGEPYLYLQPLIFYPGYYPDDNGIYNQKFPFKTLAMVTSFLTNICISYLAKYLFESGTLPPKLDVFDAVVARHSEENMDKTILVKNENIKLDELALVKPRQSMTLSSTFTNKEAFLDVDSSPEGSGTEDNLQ

[10] = target: Large T antigen (Simian virus 40, UniProt P03070); format: functional, Betapolyomavirus macacae;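 further: Confirmatory-stage PubChem screen for compounds that inhibit SV40 T antigen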
Chain of Large T antigen (P03070 whole entry): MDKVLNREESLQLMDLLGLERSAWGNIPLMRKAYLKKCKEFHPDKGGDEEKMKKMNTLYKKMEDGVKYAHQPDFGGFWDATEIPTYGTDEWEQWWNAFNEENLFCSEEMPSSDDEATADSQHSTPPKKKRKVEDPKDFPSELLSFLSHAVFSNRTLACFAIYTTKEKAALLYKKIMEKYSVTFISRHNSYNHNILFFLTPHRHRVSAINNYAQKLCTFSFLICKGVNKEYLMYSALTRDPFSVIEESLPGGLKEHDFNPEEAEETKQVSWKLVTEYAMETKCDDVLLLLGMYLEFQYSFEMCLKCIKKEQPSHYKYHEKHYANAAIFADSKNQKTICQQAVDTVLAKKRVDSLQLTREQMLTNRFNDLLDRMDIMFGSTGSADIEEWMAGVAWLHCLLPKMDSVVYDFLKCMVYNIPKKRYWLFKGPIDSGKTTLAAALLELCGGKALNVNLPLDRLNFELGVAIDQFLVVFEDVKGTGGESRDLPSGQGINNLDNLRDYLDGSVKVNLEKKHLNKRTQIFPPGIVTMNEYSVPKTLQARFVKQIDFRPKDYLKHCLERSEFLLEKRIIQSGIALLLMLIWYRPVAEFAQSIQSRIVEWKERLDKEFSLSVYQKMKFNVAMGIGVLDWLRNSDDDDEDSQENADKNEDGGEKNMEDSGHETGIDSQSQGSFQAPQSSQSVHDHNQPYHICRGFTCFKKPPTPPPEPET

[11] = luciferase reporter signal suppression in cells – H4 neuroglioma cells, luminescence, dose response (AID 1990); format: functional, cell-based
[12] = alpha-synuclein stem-loop luciferase translation blockers – H4 neuroglioma cells, luminescence, confirmation (AID 1988); format: functional, cell-based
[13] = Luminescence Cell-Based Dose Response HTS to Identify Inhibitors of 5'UTR Stem-Loop Driven Prion Protein mRNA Translation in H4 Neuroglioblastoma Cells. [Related pubchem assays: 1827 (Project Summary), 1813 (Primary HTS)]; format: functional
[14] = target: Genome polyprotein (dengue virus type 2, UniProt P29990); assay: flavivirus cap methylation enzyme inhibition – biochemical, confirmation dose response, primary screen (AID 588689); format: functional
Chain of Genome polyprotein (P29990 2492-3391 limits assumed): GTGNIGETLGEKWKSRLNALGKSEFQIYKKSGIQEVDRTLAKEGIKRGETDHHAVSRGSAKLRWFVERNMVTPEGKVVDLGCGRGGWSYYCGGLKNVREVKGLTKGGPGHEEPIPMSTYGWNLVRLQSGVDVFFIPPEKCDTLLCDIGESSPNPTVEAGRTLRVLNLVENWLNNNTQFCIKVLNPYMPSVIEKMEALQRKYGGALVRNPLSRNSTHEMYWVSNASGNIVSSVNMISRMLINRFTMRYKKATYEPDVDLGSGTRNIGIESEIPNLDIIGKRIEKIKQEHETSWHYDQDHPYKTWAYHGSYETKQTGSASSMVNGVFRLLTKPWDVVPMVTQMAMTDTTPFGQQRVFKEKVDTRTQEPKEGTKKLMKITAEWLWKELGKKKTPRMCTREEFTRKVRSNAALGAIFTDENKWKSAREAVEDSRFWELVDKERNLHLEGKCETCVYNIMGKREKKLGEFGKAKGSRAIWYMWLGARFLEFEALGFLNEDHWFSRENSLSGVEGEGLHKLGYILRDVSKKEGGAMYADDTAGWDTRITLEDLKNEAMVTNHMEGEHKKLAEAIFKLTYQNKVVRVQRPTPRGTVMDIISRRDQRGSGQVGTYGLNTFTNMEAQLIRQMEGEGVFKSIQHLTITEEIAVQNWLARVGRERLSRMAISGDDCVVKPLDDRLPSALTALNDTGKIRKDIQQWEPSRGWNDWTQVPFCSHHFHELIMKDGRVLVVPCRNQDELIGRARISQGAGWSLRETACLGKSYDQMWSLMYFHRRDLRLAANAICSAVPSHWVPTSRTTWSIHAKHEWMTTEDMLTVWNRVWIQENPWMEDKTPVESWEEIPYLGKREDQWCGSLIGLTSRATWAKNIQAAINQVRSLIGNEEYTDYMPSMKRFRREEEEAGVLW

[15] = target: Induced myeloid leukemia cell differentiation protein Mcl-1 (Homo sapiens, UniProt Q07820); format: functional
Chain of Induced myeloid leukemia cell differentiation protein Mcl-1 (Q07820 whole entry): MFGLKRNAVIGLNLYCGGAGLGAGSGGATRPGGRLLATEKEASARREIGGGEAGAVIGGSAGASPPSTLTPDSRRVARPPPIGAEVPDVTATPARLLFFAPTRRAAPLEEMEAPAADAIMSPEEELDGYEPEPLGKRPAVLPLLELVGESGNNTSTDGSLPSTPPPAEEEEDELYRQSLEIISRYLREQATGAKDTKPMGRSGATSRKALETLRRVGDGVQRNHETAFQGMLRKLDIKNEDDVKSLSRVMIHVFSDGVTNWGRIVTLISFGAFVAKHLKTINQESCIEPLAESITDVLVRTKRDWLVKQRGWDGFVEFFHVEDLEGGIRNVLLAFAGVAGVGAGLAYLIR

C[C@@H]1CCCCO[C@@H](CN(C)Cc2ccc(Cl)c(Cl)c2)[C@@H](C)CN([C@H](C)CO)C(=O)c2cc(NC(=O)Cc3ccccc3)ccc2O1
AC50 [1]: 4.04 µM (active)

O=S(=O)(c1ccc(Cl)cc1)N1CCN(c2ncnc3sccc23)CC1
AC50 [2]: 32.2 µM (active)
AC50 [3]: 3.04 µM (active)
AC50 [4]: 5.25 µM (active)
AC50 [5]: 5.44 µM (active)

COc1ccc(CNC(=O)c2cc(-c3cccs3)on2)cc1
IC50 [6]: 27.7 µM (active)

CCCCSc1nnc2c(n1)[nH]c1ccccc12
IC50 [6]: > 50 µM (not active)

C[C@@H]1CCCCO[C@H](CN(C)C(=O)Nc2ccc(C(F)(F)F)cc2)[C@@H](C)CN([C@H](C)CO)C(=O)c2cc(NC(=O)CCC(F)(F)F)ccc2O1
AC50 [1]: 3.67 µM (active)

CCn1c(SCC(=O)Nc2ccc(NC(=O)c3ccco3)c(OC)c2)nc2ccccc2c1=O
IC50 [6]: 35.8 µM (not active)

COc1ccccc1NS(=O)(=O)c1cc(C(=O)N2CC(C)CC(C)C2)ccc1C (configuration not stated)
EC50 [7]: > 260 µM (inactive)
AC50 [8]: 5.54 µM (active)

C[C@H](CO)N1C[C@H](C)[C@@H](CN(C)Cc2ccc(-c3ccccc3)cc2)Oc2c(NC(=O)c3ccncc3)cccc2C1=O
AC50 [1]: 0.08 µM (active)

O=C(Cn1c(=O)n(Cc2ccco2)c(=O)c2c3c(sc21)CCCCC3)c1ccccc1
IC50 [6]: > 50 µM (not active)

COCCCNC(=O)c1ccc2c(=O)n(Cc3ccc4c(c3)OCO4)c(=S)[nH]c2c1
IC50 [6]: 42 µM (not active)

C[C@@H]1CCCCO[C@@H](CN(C)Cc2ccc(C(=O)Nc3ccccc3N)cc2)[C@@H](C)CN([C@H](C)CO)C(=O)c2cc(NS(=O)(=O)c3ccc(Cl)cc3)ccc2O1
AC50 [1]: 3.39 µM (active)

Cc1ccc(-n2nnnc2SCC(=O)Nc2cccc(NC(=O)c3ccco3)c2)cc1C
IC50 [6]: 14.9 µM (active)

C[C@@H]1CN([C@H](C)CO)C(=O)Cc2cc(NC(=O)Nc3ccc4c(c3)OCO4)ccc2O[C@H]1CN(C)CC1CCCCC1
AC50 [1]: 7 µM (active)

Cc1cc([N+](=O)[O-])c(NCCCCCCO)c([N+](=O)[O-])c1
IC50 [9]: 12.6 µM (active)

C[C@@H]1CN([C@@H](C)CO)C(=O)c2cccc(NC(=O)c3nc4ccccc4s3)c2O[C@@H]1CN(C)Cc1ccccc1
AC50 [1]: 4.84 µM (active)

C[C@@H]1CN([C@H](C)CO)C(=O)Cc2cc(NS(=O)(=O)c3ccc(Cl)cc3)ccc2O[C@@H]1CN(C)Cc1ccc(-c2ccccc2)cc1
AC50 [1]: 2.76 µM (active)

F[B-](F)(F)c1cc2cc(Br)ccc2s1
AC50 [8]: 4.02 µM (active)

CC(C)CCNc1nc(N)c([N+](=O)[O-])c(N2CCCCCC2)n1
AC50 [2]: 47.5 µM (active)
AC50 [3]: 8.79 µM (active)
AC50 [4]: 5.43 µM (active)

C=CCOC(=O)C1=C(C)N=c2s/c(=C3\C(=O)N(CC(=O)O)c4ccccc43)c(=O)n2C1c1ccc(OC)cc1 (configuration not stated)
IC50 [10]: 49.1 µM (active)
EC50 [11]: > 120 µM (not active)
EC50 [12]: 74 µM (active)
EC50 [13]: > 120 µM (not active)
IC50 [14]: 59.4 µM (active)
IC50 [15]: 3 µM (active)

COc1cccc(C2CC(c3ccc(C)cc3)=NN2C(=O)c2ccccc2F)c1OC (configuration not stated)
AC50 [3]: 36 µM (active)
AC50 [4]: 30.4 µM (active)

Cc1cccc(C)c1NC(=O)CN(C)C(=O)c1cccc(S(=O)(=O)N2CCN(c3ccc(F)cc3)CC2)c1
AC50 [2]: > 70 µM (inactive)
AC50 [3]: 2.2 µM (active)
AC50 [4]: 13 µM (active)

COc1ccc(S(=O)(=O)N(C)C[C@H]2Oc3ccc(NC(=O)Nc4cccc5ccccc45)cc3C(=O)N([C@@H](C)CO)C[C@H]2C)cc1
AC50 [1]: 4.38 µM (active)

COc1ccc(NS(=O)(=O)c2ccc(C(=O)N3CCCCCC3)cc2)cc1
AC50 [2]: 48.4 µM (active)
AC50 [3]: 4.51 µM (active)
AC50 [4]: 9.07 µM (active)

CCC(C)c1ccc(NC(S)=NCc2ccccn2)cc1 (configuration not stated)
IC50 [9]: 13.2 µM (active)

COc1ccc(-c2nnn(CC(=O)Nc3ccc4c(c3)OCCO4)n2)cc1OC
AC50 [2]: > 70 µM (inactive)
AC50 [4]: 21.2 µM (active)
